From patent US7655819B2, “Polymers with antimicrobial, bioresistant and fungal resistant properties” (TPAT IP LLC, priority 2002, dated 2010)

Assays:
[1] = test system: nematodes in the soil; conditions: prior art; cited from earlier work
[2] = prior art; cited from earlier work
[3] = test system: bacteria (bacterial count); test: ASTM D-3946-92 testing of metalworking fluid Encool SS with product incorporated; format: cell-based; conditions: day 5, 1×10^7 without product
Experimental: 1,128 g oleic acid and 400 g BNPD plus 2 g sulfuric were charged in a three neck round bottom flask with agitation, nitrogen, and condenser and heated to 350 F and held for 2.5 hrs until 80 ml of water were recovered. This product was then incorporated into Engineered Lubricants Encool SS at 6% and 10% of the concentrate.
These samples were then submitted for ASTM D-3946-92 testing.

[4] = test system: fungus; conditions: cited from earlier work
[5] = test system: various strains of both gram positive and gram negative bacteria; conditions: cited from earlier work

Structure (SMILES): O=[N+]([O-])CBr [bromonitromethane]
- effectiveness for the treatment of nematodes in the soil [1]: effective
- effectiveness as a general biocide [2]: effective

Structure (SMILES): CCCCCCC/C=C/CCCCCCCCC(=O)OCC(Br)(COC(=O)CCCCCCCC/C=C/CCCCCCC)[N+](=O)[O-] [Example 7]
- bacterial count ([3]; 6% incorporation in Encool SS concentrate): 1.5×10^4
- bacterial count ([3]; 10% incorporation in Encool SS concentrate): 3×10^3

Structure (SMILES): O=[N+]([O-])C(Br)(CO)CO [BNPD, 2-bromo-2-nitro-propane-1-3-diol]
- antifungal activity [4]: antifungal
- average minimum inhibitory concentration ([5]; average over gram positive and gram negative strains): around 25 ppm
- effective concentrations against bacteria ([5]; various strains of gram positive and gram negative bacteria): 1-50 ppm
